Source: ChEMBL document CHEMBL1201862, “PubChem BioAssay data set” (2004)
Blank lines part the entries; values can stand above or below the compound they belong to. Active and inactive are the calls of the source.

Legend:
[1] = molecular target: T1, Aryl hydrocarbon receptor (Homo sapiens, UniProt P35869); experiment: Luminescence-based cell-based high throughput dose response assay for activators of the Aryl Hydrocarbon Receptor (AHR). [Related pubchem assays: 2796 (Primary screen (AHR activators in singlicate)), 2845 (Confirmation screen (AHR activators in triplicate)), 434939 (Counterscreen (PXR activators in triplicate)), 2804 (Summary (AHR activators))]; assay type: ADME
T1 sequence (P35869 whole entry): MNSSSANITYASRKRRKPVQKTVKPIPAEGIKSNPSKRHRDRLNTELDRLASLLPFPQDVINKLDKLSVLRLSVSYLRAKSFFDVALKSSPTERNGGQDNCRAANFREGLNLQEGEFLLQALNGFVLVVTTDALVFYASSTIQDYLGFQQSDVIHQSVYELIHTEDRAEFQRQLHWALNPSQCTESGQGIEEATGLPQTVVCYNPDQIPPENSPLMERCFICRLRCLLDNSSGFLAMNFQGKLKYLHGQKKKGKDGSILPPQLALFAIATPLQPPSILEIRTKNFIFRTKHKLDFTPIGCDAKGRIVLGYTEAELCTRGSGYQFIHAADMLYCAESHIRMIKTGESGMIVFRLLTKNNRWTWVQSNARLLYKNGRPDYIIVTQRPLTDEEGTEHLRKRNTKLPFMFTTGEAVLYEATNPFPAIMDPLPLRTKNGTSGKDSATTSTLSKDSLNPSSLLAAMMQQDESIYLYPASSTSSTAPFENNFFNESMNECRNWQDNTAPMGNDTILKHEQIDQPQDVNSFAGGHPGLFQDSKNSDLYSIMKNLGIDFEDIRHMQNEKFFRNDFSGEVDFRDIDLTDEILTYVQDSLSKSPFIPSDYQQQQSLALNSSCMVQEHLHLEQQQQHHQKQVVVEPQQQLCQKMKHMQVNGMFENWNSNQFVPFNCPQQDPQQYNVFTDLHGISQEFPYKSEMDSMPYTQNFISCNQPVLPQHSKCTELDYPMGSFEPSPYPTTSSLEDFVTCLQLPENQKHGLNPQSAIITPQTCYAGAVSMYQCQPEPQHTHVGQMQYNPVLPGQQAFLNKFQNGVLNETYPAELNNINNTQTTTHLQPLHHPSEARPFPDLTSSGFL

CAAX prenyl protease 2 = molecular target: T2, CAAX prenyl protease 2 (Saccharomyces cerevisiae S288c, UniProt Q03530); assay type: biochemical
T2 sequence (Q03530 whole entry): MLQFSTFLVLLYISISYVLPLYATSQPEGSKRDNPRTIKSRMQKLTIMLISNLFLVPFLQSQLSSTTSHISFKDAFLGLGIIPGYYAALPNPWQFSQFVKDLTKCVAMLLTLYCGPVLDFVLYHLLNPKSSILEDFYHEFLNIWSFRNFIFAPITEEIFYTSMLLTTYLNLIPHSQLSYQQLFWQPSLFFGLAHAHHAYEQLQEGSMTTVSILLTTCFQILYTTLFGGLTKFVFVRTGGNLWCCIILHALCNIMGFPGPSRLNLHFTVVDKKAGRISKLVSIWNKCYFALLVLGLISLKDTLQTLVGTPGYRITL

[2] = molecular target: T3, Short transient receptor potential channel 4 (Mus musculus, UniProt Q9QUQ5); experiment: calcium entry via TRPC4 opening agents – cell-based, HEK293 TRPC4/mu-opioid, Fluo-4 calcium, dose response (AID 434937); assay type: functional
T3 sequence (Q9QUQ5 whole entry): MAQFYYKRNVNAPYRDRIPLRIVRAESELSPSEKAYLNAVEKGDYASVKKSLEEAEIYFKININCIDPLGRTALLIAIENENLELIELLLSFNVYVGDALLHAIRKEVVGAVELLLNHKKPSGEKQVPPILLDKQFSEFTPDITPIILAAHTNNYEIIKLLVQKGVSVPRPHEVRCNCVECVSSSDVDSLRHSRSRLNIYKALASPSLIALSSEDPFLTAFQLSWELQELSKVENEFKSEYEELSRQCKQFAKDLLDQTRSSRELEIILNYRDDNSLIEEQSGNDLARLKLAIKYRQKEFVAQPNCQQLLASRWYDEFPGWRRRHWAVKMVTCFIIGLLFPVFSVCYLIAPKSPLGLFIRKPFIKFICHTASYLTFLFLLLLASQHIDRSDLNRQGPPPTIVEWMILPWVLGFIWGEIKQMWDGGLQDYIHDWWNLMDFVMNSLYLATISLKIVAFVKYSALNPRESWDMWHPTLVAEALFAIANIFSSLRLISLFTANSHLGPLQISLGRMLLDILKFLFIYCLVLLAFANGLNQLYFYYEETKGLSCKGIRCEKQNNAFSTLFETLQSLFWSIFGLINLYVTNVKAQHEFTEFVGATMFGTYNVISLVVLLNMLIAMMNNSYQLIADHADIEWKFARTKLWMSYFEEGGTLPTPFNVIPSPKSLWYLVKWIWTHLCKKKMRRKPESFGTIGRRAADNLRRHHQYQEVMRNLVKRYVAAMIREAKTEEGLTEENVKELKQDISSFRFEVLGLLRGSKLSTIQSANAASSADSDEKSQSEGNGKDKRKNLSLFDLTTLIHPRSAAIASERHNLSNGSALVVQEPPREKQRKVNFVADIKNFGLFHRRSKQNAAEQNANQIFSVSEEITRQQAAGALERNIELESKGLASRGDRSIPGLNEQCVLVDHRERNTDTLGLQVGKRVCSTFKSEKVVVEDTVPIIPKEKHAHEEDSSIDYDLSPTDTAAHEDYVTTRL

X-box-binding protein 1 = molecular target: T4, X-box-binding protein 1 (Homo sapiens, UniProt P17861); assay type: functional, Cricetulus griseus;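 further: confirmatory dose-response counter-screen serving a CHOP assay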
T4 sequence (P17861 whole entry): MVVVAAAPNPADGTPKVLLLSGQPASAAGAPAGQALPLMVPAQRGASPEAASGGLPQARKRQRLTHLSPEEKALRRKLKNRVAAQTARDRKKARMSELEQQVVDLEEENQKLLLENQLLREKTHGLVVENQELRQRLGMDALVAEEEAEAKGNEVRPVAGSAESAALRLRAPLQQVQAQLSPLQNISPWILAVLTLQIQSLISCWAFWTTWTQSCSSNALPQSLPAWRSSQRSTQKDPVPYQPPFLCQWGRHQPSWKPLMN

cells [3] = assay type: functional, cell-based
[4] = molecular target: T5, Heat shock factor protein 1 (Mus musculus, UniProt P38532); experiment: decrease of HSF1-responsive luciferase luminescence – cell-based, NIH3T3, dose retest, confirmation (AID 2382); assay type: functional;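 further: NIH3T3 fibroblasts with HSF1-driven luciferase reporter stressed by proteasome inhibitor MG132; luminescence from HSF1-driven luciferase expression after 8 hours of MG132 stress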
T5 sequence (P38532 whole entry): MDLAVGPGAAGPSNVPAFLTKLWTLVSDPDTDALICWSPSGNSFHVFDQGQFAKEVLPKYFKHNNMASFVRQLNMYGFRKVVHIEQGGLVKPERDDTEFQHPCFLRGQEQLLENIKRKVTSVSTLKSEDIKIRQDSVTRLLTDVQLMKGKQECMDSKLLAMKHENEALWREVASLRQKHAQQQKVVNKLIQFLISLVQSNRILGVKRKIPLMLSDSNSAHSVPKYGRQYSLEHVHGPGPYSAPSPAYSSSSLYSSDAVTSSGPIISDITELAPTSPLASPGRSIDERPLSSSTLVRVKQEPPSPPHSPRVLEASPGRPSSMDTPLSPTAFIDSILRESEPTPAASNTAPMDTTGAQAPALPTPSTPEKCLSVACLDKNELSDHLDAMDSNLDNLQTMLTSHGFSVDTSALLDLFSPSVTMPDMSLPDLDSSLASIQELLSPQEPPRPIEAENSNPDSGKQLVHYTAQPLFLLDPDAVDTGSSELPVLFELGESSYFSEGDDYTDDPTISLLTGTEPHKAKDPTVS

cells [5] = assay type: functional, cell-based; remark: listed apart in the source
[6] = HEK-293T viability loss after treatment – luminescence, T-cell screen hits, cytotoxicity control for TCR NF-kB inhibitor project, dose response (AID 489026); assay type: functional, cell-based;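 further: cells exposed to compound about 14 hours before the viability readout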
[7] = molecular target: Intestinal-type alkaline phosphatase (Homo sapiens, UniProt P09923); experiment: Dose Response confirmation of uHTS hits from a small molecule inhibitors of human intestinal alkaline phosphatase via a luminescent assay. [Related pubchem assays (depositor defined):AID2544, AID2574]; assay type: functional
[8] = reduction of Shn3 3'UTR-driven luciferase in osteoblasts – cell-based, Clone20 osteoblasts, firefly luciferase, cherry-picked, dose response (AID 624132); assay type: functional;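 further: firefly luciferase luminescence from reporter carrying the Shn3 3'UTR in osteoblasts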
[9] = loss of viability in HepG2 cells – cell-based, CellTiter-Glo, cherry-picked, cytotoxicity control for Shn3 inhibitor project, dose response (AID 624134); assay type: functional
[10] = non-specific 3'UTR reporter inhibition in Clone20-Shn3RL – cell-based, Renilla luciferase, cherry-picked, counter-screen for Shn3 inhibitor project, dose response (AID 624133); assay type: functional
[11] = molecular target: Mitogen-activated protein kinase 10 (Homo sapiens, UniProt P53779); experiment: Dose response biochemical screening assay for inhibitors of c-Jun N-Terminal Kinase 3 (JNK3). [Related pubchem assays: 746 ]
Sequence of Mitogen-activated protein kinase 10 (P53779 whole entry): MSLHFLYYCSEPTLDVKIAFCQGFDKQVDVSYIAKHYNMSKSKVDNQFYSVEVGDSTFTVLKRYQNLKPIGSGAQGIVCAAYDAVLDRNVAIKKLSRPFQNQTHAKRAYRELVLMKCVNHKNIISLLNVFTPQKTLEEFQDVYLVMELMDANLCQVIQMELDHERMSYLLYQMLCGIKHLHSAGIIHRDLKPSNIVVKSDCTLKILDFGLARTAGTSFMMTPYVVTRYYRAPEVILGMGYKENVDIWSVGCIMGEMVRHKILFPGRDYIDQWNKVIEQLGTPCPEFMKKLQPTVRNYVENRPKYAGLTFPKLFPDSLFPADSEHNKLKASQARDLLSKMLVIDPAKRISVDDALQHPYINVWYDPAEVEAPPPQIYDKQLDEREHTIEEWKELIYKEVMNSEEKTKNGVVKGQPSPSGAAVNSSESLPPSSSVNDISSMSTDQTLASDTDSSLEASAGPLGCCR

Sequence of Intestinal-type alkaline phosphatase (P09923 whole entry): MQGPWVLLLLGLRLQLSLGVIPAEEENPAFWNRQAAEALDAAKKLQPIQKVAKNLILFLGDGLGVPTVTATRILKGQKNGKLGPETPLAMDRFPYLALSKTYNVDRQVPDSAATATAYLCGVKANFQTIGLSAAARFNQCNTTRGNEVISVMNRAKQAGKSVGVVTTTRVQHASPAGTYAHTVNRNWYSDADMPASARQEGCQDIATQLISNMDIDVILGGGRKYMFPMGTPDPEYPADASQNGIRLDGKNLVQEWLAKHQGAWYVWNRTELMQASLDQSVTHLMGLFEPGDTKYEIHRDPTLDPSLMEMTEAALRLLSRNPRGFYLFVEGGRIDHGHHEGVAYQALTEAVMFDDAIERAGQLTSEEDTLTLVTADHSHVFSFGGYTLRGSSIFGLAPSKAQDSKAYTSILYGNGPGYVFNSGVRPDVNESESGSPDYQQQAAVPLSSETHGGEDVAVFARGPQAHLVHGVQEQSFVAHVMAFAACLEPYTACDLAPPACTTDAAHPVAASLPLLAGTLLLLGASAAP

Structure (SMILES): Fc1ccc(NC(S)=NCCc2ccccn2)cc1
- EC50 [2]: 2.11 µM (active)

Structure (SMILES): CC(C)c1ccc(C2C3CSCC=C3C(C#N)=C(N)C2(C#N)C#N)cc1 (stereo not given)
- Absolute IC50 (XBP1) (X-box-binding protein 1): 10 µM

Structure (SMILES): COC(=O)[C@]12OC[C@]34C([C@@H](O)[C@@H]1O)[C@]1(C)CC(=O)C(O)=C(C)[C@@H]1C[C@H]3OC(=O)[C@H](O)[C@@H]24 (stereo not given in full)
- EC50 (cells [3]): > 350 µM (not active)
- EC50 [4]: 1.01 µM (active)
- EC50 (cells [5]): > 350 µM (not active)
- IC50 [6]: > 80 µM (inactive)

Structure (SMILES): Cc1ccc(NS(=O)(=O)c2ccc(C(=O)NC3CCN(Cc4ccccc4)CC3)cc2)cc1
- IC50 [6]: 76.2 µM (inactive)
- AC50 [8]: 4.69 µM (active)
- AC50 [9]: 14.8 µM (active)
- AC50 [10]: 12.9 µM (active)

Structure (SMILES): N#C/C(=C(\O)c1ccco1)c1ccccn1
- IC50 [11]: 51.9 µM (not active)
- IC50 [7]: > 100 µM (inactive)

Second part, the compound after the results:

- EC50 [1]: 5.72 µM (active)
- AC50 (CAAX prenyl protease 2): 5.02 µM (active)
Structure (SMILES): COc1ccc(-c2oc3ccc(N4CCOCC4)cc3c2C#Cc2ccc(N)cc2)cc1

- IC50 [7]: > 100 µM (inactive)
Structure (SMILES): COc1ccc(NC(=O)CCN2CCN(S(=O)(=O)c3cc(Cl)ccc3OC)CC2)cc1
